In brackets after ≈: the same amount, converted by molar mass. Activity calls are given as the source filed them. The calls are words filed in the database; no cut-off is given here. Some results are limits rather than exact numbers.

Data on 3 compounds can be found in ChEMBL document CHEMBL5143555, “Potentiating the intracellular killing of Staphylococcus aureus by dihydroquinazoline analogues as NorA efflux pump inhibitor” (Bioorg Med Chem, 2022).

Series [1] deals with T1, Quinolone resistance protein NorA (Staphylococcus aureus) (UniProt P0A0J7).
T1 sequence (whole entry): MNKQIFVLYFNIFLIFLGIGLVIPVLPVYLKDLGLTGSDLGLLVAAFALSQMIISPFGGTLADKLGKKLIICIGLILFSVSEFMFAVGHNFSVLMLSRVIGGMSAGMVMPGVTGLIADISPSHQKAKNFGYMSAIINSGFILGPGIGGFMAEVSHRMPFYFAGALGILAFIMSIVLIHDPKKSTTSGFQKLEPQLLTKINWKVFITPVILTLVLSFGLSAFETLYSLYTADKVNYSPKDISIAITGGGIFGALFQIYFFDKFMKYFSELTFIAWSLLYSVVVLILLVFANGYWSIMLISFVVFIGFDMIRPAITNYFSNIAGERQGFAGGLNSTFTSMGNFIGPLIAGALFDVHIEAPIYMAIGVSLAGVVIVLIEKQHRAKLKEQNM
Put plainly: Inhibition of NorA in Staphylococcus aureus 1199B infected human THP-1 cells assessed as potentiation of norfloxacin-induced bactericidal activity by measuring log reduction in bacterial count measured after 24 hrs relative to vancomycin. The format is cell-based.

Series [2] has as its target T1, Quinolone resistance protein NorA (Staphylococcus aureus). The series is described as follows: Inhibition of NorA in Staphylococcus aureus 1199B assessed as potentiation of ethidium bromide-induced antibacterial activity by measuring fractional inhibitory concentration.
Series [3] has as its system Staphylococcus aureus. Put plainly: Up regulation of NorA gene expression in Staphylococcus aureus 1199B at 3.9 ug/ml measured after 2 hrs in presence of norfloxacin by qRT-PCR analysis relative to control. As to conditions: dose 3.9 µg/ml. The format is functional. (In general: Quantitative PCR measures a nucleic acid by following its amplification.)
Series [4] relates to Staphylococcus aureus. Put plainly: Up regulation of NorA gene expression in Staphylococcus aureus 1199B at 3.9 ug/ml measured after 2 hrs by qRT-PCR analysis relative to control. Type of series: functional. As to conditions: dose 3.9 µg/ml.
Series [5] addresses T1, Quinolone resistance protein NorA (Staphylococcus aureus). Put plainly: Inhibition of NorA in Staphylococcus aureus 1199B assessed as accumulation of norfloxacin at 3.9 ug/ml by measuring fluorescence intensity measured at 5 mins interval for 40 mins by fluorescence spectrophotometry. The following applies: dose 3.9 µg/ml.
Series [6] concerns Staphylococcus aureus. The series is described as follows: Antibacterial activity against Staphylococcus aureus 1199B measured after 24 hrs by Muller Hinton broth based MTT assay. The format is functional.
Series [7] concerns Staphylococcus aureus. Put plainly: Antibacterial activity against Staphylococcus aureus 1199 measured after 24 hrs by Muller Hinton broth based MTT assay. The format is functional. (Formazan colour is commonly taken as a measure of viable cells.)
In series [8] the target is T1, Quinolone resistance protein NorA (Staphylococcus aureus). The series is described as follows: Inhibition of NorA in Staphylococcus aureus 1199B assessed as accumulation of ethidium bromide at 3.9 ug/ml by measuring fluorescence intensity measured at 5 mins interval for 40 mins by fluorescence spectrophotometry. As to conditions: dose 3.9 µg/ml.
Series [9] has the same target. The series is described as follows: Inhibition of NorA in Staphylococcus aureus 1199B infected human THP-1 cells assessed as potentiation of norfloxacin-induced bactericidal activity by measuring reduction in bacterial count at modulatory concentration measured after 24 hrs relative to control. Type of series: cell-based.
The target is the same in series [10]. The series is described as follows: Inhibition of NorA in Staphylococcus aureus 1199B assessed as potentiation of norfloxacin-induced antibacterial activity by measuring fractional inhibitory concentration.
For series [11] the target is unchanged. The series is described as follows: Inhibition of NorA in Staphylococcus aureus 1199B assessed as potentiation of ethidium bromide-induced antibacterial activity by measuring ethidium bromide MIC at sub MIC relative to ethidium bromide MIC alone.
Series [12] has the same target. Put plainly: Inhibition of NorA in Staphylococcus aureus 1199B assessed as potentiation of norfloxacin-induced antibacterial activity by measuring Norfloxacin MIC at sub MIC relative to norfloxacin MIC alone.
For series [13] the target is unchanged. Put plainly: Inhibition of NorA in Staphylococcus aureus 1199B assessed as potentiation of ethidium bromide-induced bactericidal activity at 7.8 ug/ml measured after 24 hrs by time-kill kinetics assay. As to conditions: dose 7.8 µg/ml.
Series [14] can be described thus: Cytotoxicity against kidney epithelial cells (unknown origin) assessed as cell viability at 50 ug/mL measured after 24 hrs by alamar blue assay relative to control. The format is toxicity, cell-based, Fetal kidney cell. As to conditions: at 50 µg/mL, read-out: Activity. In general terms: Resazurin is reduced to fluorescent resorufin, in cell work by metabolically active cells.

The target of series [15] is T1, Quinolone resistance protein NorA (Staphylococcus aureus). Put plainly: Inhibition of NorA in Staphylococcus aureus 1199B assessed as potentiation of norfloxacin-induced morphological changes by measuring appearance of plicated and with cracked surface at sub MIC by field emission scanning electron microscopy.
For series [16] the target is unchanged. Put plainly: Inhibition of NorA in Staphylococcus aureus 1199B assessed as potentiation of 3.1 ug/mL norfloxacin-induced bactericidal activity by measuring log reduction in bacterial count at 7.8 ug/mL measured after 8 hrs by time-kill kinetics assay. As to conditions: dose 7.8 µg/ml.
For series [17] the target is unchanged. The series is described as follows: Inhibition of NorA in Staphylococcus aureus 1199B infected human THP-1 cells assessed as potentiation of norfloxacin-induced bactericidal activity by measuring reduction in intracellular proliferation at modulatory concentration measured after 24 hrs. The format is cell-based.
Series [18] has the same target. The series is described as follows: Inhibition of NorA in Staphylococcus aureus 1199B infected human THP-1 cells assessed as potentiation of norfloxacin-induced bactericidal activity by measuring reduction in bacterial count at modulatory concentration measured after 24 hrs. Type of series: cell-based.
Series [19] concerns Staphylococcus aureus. The series is described as follows: Antibacterial activity against Staphylococcus aureus K1758 measured after 24 hrs by Muller Hinton broth based MTT assay. Type of series: functional.
In series [20] the target is T1, Quinolone resistance protein NorA (Staphylococcus aureus). The series is described as follows: Inhibition of NorA in Staphylococcus aureus 1199B assessed as potentiation of norfloxacin-induced antibacterial activity by measuring Norfloxacin MIC at sub MIC.
Series [21] has the same target. The series is described as follows: Inhibition of NorA in Staphylococcus aureus 1199B infected human THP-1 cells assessed as potentiation of 3.1 ug/ml norfloxacin-induced bactericidal activity by measuring log reduction in bacterial count at 15.6 ug/ml measured after 24 hrs relative to control. Type of series: cell-based. As to conditions: dose 15.6 µg/ml.
Series [22] has the same target. The series is described as follows: Inhibition of NorA in Staphylococcus aureus 1199B assessed as potentiation of ethidium bromide-induced antibacterial activity by measuring ethidium bromide MIC at sub MIC.
The target is the same in series [23]. The series is described as follows: Inhibition of NorA in Staphylococcus aureus 1199B infected human THP-1 cells assessed as potentiation of norfloxacin-induced bactericidal activity by measuring reduction in intracellular invasion at modulatory concentration measured after 24 hrs. The format is cell-based.
The target is the same in series [24]. Put plainly: Inhibition of NorA in Staphylococcus aureus 1199B assessed as accumulation of norfloxacin at 3.9 ug/ml measured at 5 mins interval for 40 mins by fluorescence spectrophotometry. As to conditions: dose 3.9 µg/ml.
Series [25] has the same target. Put plainly: Inhibition of NorA in Staphylococcus aureus 1199B assessed as potentiation of 3.1 ug/mL norfloxacin-induced bactericidal activity by measuring log reduction in bacterial count at 7.8 ug/mL measured after 24 hrs by time-kill kinetics assay. As to conditions: dose 7.8 µg/ml.
Series [26] has as its system Staphylococcus aureus. Put plainly: Down regulation of NorA gene expression in Staphylococcus aureus 1199B at 3.1 ug/ml measured after 2 hrs by qRT-PCR analysis relative to control. The format is functional. As to conditions: dose 3.1 µg/ml.
For series [27], the target named is T1, Quinolone resistance protein NorA (Staphylococcus aureus). The series is described as follows: Inhibition of NorA in Staphylococcus aureus 1199B infected human THP-1 cells assessed as potentiation of 6.2 ug/ml norfloxacin-induced bactericidal activity by measuring log reduction in bacterial count at 15.6 ug/ml measured after 24 hrs relative to control. Type of series: cell-based. As to conditions: dose 15.6 µg/ml.

Series [28] shares this target. The series is described as follows: Inhibition of NorA in Staphylococcus aureus 1199B assessed as potentiation of norfloxacin-induced morphological changes by measuring appearance of rough and dented cell at sub MIC by field emission scanning electron microscopy.
Series [29] relates to Staphylococcus aureus. Put plainly: Down regulation of NorA gene expression in Staphylococcus aureus 1199B at 3.1 ug/ml measured after 2 hrs in presence of norfloxacin by qRT-PCR analysis relative to norfloxacin. The format is functional. The following applies: dose 3.1 µg/ml.
Series [30] addresses T1, Quinolone resistance protein NorA (Staphylococcus aureus). Put plainly: Inhibition of NorA in Staphylococcus aureus 1199B assessed as potentiation of ethidium bromide-induced bactericidal activity at 15.6 ug/ml measured within 8 hrs by time-kill kinetics assay. As to conditions: dose 15.6 µg/ml.
For series [31], the system named is Staphylococcus aureus. Put plainly: Down regulation of NorA gene expression in Staphylococcus aureus 1199B at 3.9 ug/ml measured after 2 hrs by qRT-PCR analysis. As to conditions: dose 3.9 µg/ml. Type of series: functional.

In the case of `Brc1ccc(C2=NC(c3ccc(Br)cc3)Nc3ccccc32)cc1` (stereo unspecified), the values for the FC in [1] and in [21] were 3 and 5, respectively. For the same compound, the fractional inhibitory concentration index (FICI) was 0.266 in series [2] and 0.078 in series [10]. Further, the fold change (FC) in series [3] was determined as 3; in series [4], 3; in [9], 4; in series [11], 4; in series [12], 16. Further, the Flu intensity in series [5] came out at 13000; in series [8], 127. Moreover, the MIC in series [6] stood at 500 µg/mL (≈ 1130 µM); in series [7], 125 µg/mL (≈ 283 µM); in series [19], 15.6 µg/mL (≈ 35.3 µM); in series [20], 3.1 µg/mL; in series [22], 12.5 µg/mL. Moreover, the inhibition entry in series [13], in [15], in series [17] and in series [23] was “Active” in each case. Moreover, the viability at 24 h, 50 ug/mL in series [14] was found to be 93.6%. For the same compound, the results for the Activity in series [16] and in series [18] were more than 3 log10CFU/ml and 4.13 log10CFU/ml, respectively.
`COc1ccc(C2N=C(c3ccccc3)c3ccccc3N2)cc1OC` (stereo unspecified): the fractional inhibitory concentration index (FICI) was found to be 0.141 in series [2] and 0.078 in series [10]. Moreover, the inhibition entry in [24] and in series [13] was “Active” throughout. Besides, the MIC was 500 µg/mL (≈ 1450 µM) in [6]; 125 µg/mL (≈ 363 µM) in series [7]; 250 µg/mL (≈ 726 µM) in series [19]; 3.1 µg/mL in series [20]; 6.2 µg/mL in [22]. Moreover, the Flu intensity in series [8] is 86. Moreover, the Activity in series [25] is more than 3 log10CFU/ml. The fold change (FC) in [11] worked out at 8; in series [12], 16. Besides, the viability at 24 h, 50 ug/mL in series [14] is 83.7%.
With `C=CCOc1ccc(C2N=C(c3ccccc3)c3cc(Cl)ccc3N2C)cc1` (stereo unspecified), the FC in [1] was 3; in series [27], 5. Further, the fractional inhibitory concentration index (FICI) in [2] came out at 0.281; in [10], 0.141. In addition, the fold change (FC) worked out at 8 in series [26]; 4 in series [9]; 4 in series [11]; 8 in series [12]; 9 in series [29]. The Flu intensity stood at 15400 in series [5] and 173 in [8]. In addition, the MIC in series [6] was determined as 500 µg/mL (≈ 1290 µM); in [7] it was 125 µg/mL (≈ 321 µM); in [19], 31.2 µg/mL (≈ 80.2 µM); in [20] it was 6.2 µg/mL; in [22], 12.5 µg/mL. The inhibition result in [28], in [30], in [17] and in series [23] was “Active” each time. In addition, in series [14], the viability at 24 h, 50 ug/mL amounted to 94.8%. The Activity was more than 3 log10CFU/ml in series [16] and 4.25 log10CFU/ml in series [18]. For the same compound, the outcome in series [31] was Active.
